Laboratory results from US9205073B2, “Method for treating virus infection using derivative of aniline” (CHINA MEDICAL UNIVERSITY, priority 2014, dated 2015).

## CCOC(=O)C1=C(Nc2cccc(Cl)c2)OCC1=O
  melting point: 159.5 °C

## CCOC(=O)C1=C(Nc2cccc(O)c2)OCC1=O
  melting point: 210 to 211 °C

## CCOC(=O)C1=C(Nc2cc(OC)cc(OC)c2)OCC1=O
  melting point: 145.6 °C

## CCOC(=O)C1=C(Nc2ccccc2)OCC1=O
  melting point: 115 to 116 °C
